Results taken from ChEMBL document CHEMBL4359892, “Discovery of novel indolylarylsulfones as potent HIV-1 NNRTIs via structure-guided scaffold morphing” (Eur J Med Chem, 2019).

Experiments:
[1] = system: Human immunodeficiency virus 1; experiment: Antiviral activity against HIV-1 3B infected in human MT4 cells assessed as reduction in virus-induced cytopathic effect incubated for 5 days by MTT assay; type: functional, organism-based; conditions: Human immunodeficiency virus 1, 3B, MT4, 120 h
[2] = system: Human immunodeficiency virus 1; experiment: Antiviral activity against drug resistant HIV-1 RES056 harboring reverse transcriptase K103N/Y181C double mutant infected in human MT4 cells assessed as reduction in virus-induced cytopathic effect incubated for 5 days by MTT assay; type: functional, organism-based; conditions: Human immunodeficiency virus 1, RES056, MT4, 120 h
[3] = Cytotoxicity against human MT4 cells assessed as reduction in cell viability incubated for 5 days by MTT assay; type: cell-based
[4] = Selectivity index, ratio of CC50 for human MT4 cells to EC50 for antiviral activity against HIV IIIB; type: toxicity; conditions: read-out: Ratio CC50/EC50
[5] = Selectivity index, ratio of CC50 for human MT4 cells to EC50 for antiviral activity against HIV RES056; type: toxicity; conditions: read-out: Ratio CC50/EC50
[6] = system: Human immunodeficiency virus 1; experiment: Antiviral activity against drug resistant HIV-1 harboring reverse transcriptase E138K mutant infected in human MT4 cells assessed as reduction in virus-induced cytopathic effect incubated for 5 days by MTT assay; type: functional, organism-based; conditions: Human immunodeficiency virus 1, MT4, 120 h
[7] = system: Human immunodeficiency virus 1; experiment: Antiviral activity against drug resistant HIV-1 harboring reverse transcriptase L100I mutant infected in human MT4 cells assessed as reduction in virus-induced cytopathic effect incubated for 5 days by MTT assay; type: functional, organism-based; conditions: Human immunodeficiency virus 1, MT4, 120 h
[8] = system: Human immunodeficiency virus 1; experiment: Antiviral activity against drug resistant HIV-1 harboring reverse transcriptase K103N mutant infected in human MT4 cells assessed as reduction in virus-induced cytopathic effect incubated for 5 days by MTT assay; type: functional, organism-based; conditions: Human immunodeficiency virus 1, MT4, 120 h
[9] = system: Human immunodeficiency virus 1; experiment: Antiviral activity against drug resistant HIV-1 harboring reverse transcriptase Y181C mutant infected in human MT4 cells assessed as reduction in virus-induced cytopathic effect incubated for 5 days by MTT assay; type: functional, organism-based; conditions: Human immunodeficiency virus 1, MT4, 120 h
[10] = system: Human immunodeficiency virus 1; experiment: Antiviral activity against drug resistant HIV-1 harboring reverse transcriptase Y188L mutant infected in human MT4 cells assessed as reduction in virus-induced cytopathic effect incubated for 5 days by MTT assay; type: functional, organism-based; conditions: Human immunodeficiency virus 1, MT4, 120 h
[11] = system: Human immunodeficiency virus 1; experiment: Antiviral activity against drug resistant HIV-1 harboring reverse transcriptase F227L/V106A double mutant infected in human MT4 cells assessed as reduction in virus-induced cytopathic effect incubated for 5 days by MTT assay; type: functional, organism-based; conditions: Human immunodeficiency virus 1, MT4, 120 h
[12] = biological target: Human immunodeficiency virus type 1 reverse transcriptase (Human immunodeficiency virus 1, UniProt Q72547); experiment: Inhibition of HIV1 reverse transcriptase assessed as inhibition of biotin-dUTP incorporation into template incubated for 1 hr by ELISA
[13] = system: Human immunodeficiency virus 1; experiment: Potency index, ratio of EC50 of NVP to EC50 of compound for antiviral activity against HIV-1 3B infected in human MT4 cells assessed as reduction in virus-induced cytopathic effect incubated for 5 days by MTT assay; type: functional
[14] = system: Human immunodeficiency virus 1; experiment: Potency index, ratio of EC50 of AZT to EC50 of compound for antiviral activity against HIV-1 3B infected in human MT4 cells assessed as reduction in virus-induced cytopathic effect incubated for 5 days by MTT assay; type: functional

Compound | EC50 [1] | EC50 [2] | CC50 at 120 h [3] | selectivity ratio [4] | selectivity ratio [5] | EC50 [6] | EC50 [7] | EC50 [8] | EC50 [9] | EC50 [10] | EC50 [11] | IC50 [12] | Ratio EC50 [13] | Ratio EC50 [14]
Cc1cc(C)cc(S(=O)(=O)c2c(C(=O)NS(=O)(=O)c3ccc(F)cc3)[nH]c3ccc(Cl)cc23)c1 | 2.95 µM | > 253 µM | > 253 µM | > 86 | < 1 | 3.78 µM | 10 µM | 21.6 µM | 45.8 µM | > 253 µM | 38.6 µM | – | – | –
Cc1cc(C)cc(S(=O)(=O)c2c(C(=O)NC3CN(CC(N)=O)C3)[nH]c3ccc(Cl)cc23)c1 | 0.013 µM | > 25.5 µM | 25.5 µM | 1940 | < 1 | – | – | – | – | – | – | – | – | –
Cc1cc(C)cc(S(=O)(=O)c2c(C(=O)N[C@H]3CCN(S(C)(=O)=O)C3)[nH]c3ccc(Cl)cc23)c1 | 0.0043 µM | > 29.9 µM | 29.9 µM | 7080 | < 1 | – | – | – | – | – | – | 0.61 µM | 60 | 2.3
CCS(=O)(=O)NC(=O)c1[nH]c2ccc(Cl)cc2c1S(=O)(=O)c1cc(C)cc(C)c1 | 2.95 µM | > 284 µM | > 284 µM | > 96 | – | 0.59 µM | 4.4 µM | 10.2 µM | 12.9 µM | > 284 µM | 11.3 µM | – | – | –
CCOP(=O)(CCNC(=O)c1[nH]c2ccc(Cl)cc2c1S(=O)(=O)c1cc(C)cc(C)c1)OCC | 1.31 µM | > 131 µM | 131 µM | 100 | < 1 | 1.2 µM | 6.81 µM | 3.43 µM | 6.71 µM | > 131 µM | 7.25 µM | – | – | –
Cc1cc(C)cc(S(=O)(=O)c2c(C(=O)NS(=O)(=O)C3CC3)[nH]c3ccc(Cl)cc23)c1 | 2.6 µM | > 147 µM | 147 µM | 57 | < 1 | 0.33 µM | 8.17 µM | 12.1 µM | 18.6 µM | > 147 µM | 11.8 µM | – | – | –
Cc1cc(C)cc(S(=O)(=O)c2c(C(=O)NS(=O)(=O)C(F)(F)F)[nH]c3ccc(Cl)cc23)c1 | 0.36 µM | > 141 µM | 141 µM | 393 | < 1 | 0.92 µM | 1.41 µM | 2.48 µM | 5.51 µM | > 141 µM | 3.53 µM | – | – | –
Cc1cc(C)cc(S(=O)(=O)c2c(C(=O)N[C@@H]3CCN(S(C)(=O)=O)C3)[nH]c3ccc(Cl)cc23)c1 | 0.0047 µM | 7.66 µM | 23.9 µM | 5190 | 3 | – | – | – | – | – | – | – | 55 | 2.1
CCCS(=O)(=O)NC(=O)c1[nH]c2ccc(Cl)cc2c1S(=O)(=O)c1cc(C)cc(C)c1 | 2.4 µM | > 146 µM | 146 µM | 61 | < 1 | 0.43 µM | 10.9 µM | 17.3 µM | 29.6 µM | > 146 µM | 20.6 µM | – | – | –
Cc1cc(C)cc(S(=O)(=O)c2c(C(=O)N[C@@H]3CCN(CC(N)=O)C3)[nH]c3ccc(Cl)cc23)c1 | 0.0098 µM | > 31 µM | 31 µM | 3170 | < 1 | – | – | – | – | – | – | 1.49 µM | – | –
